Assay results as given in BindingDB's records for doi:10.1021/jm0510934 (Abbott Laboratories, 2006).
pIC50: −log10 of the molar value.

Target: Growth hormone secretagogue receptor type 1 (Homo sapiens, UniProt Q92847)
Test: Receptor Binding Studies and GHS-R Ca2+ Flux Assay
Procedure: Specific binding was determined by incubation of membranes from GHS-R1a transfected CHO-K cells with 125I-His9-ghrelin in the presence of increasing concentrations of compounds to obtain IC50. Fluorescence emissions from 96 wells were measured simultaneously at excitation and emission wavelength of 488 and 520 nm, respectively. During this time, agonist responses in the absence of ghrelin, or the antagonist effects of compounds on ghrelin-stimulated calcium flux were recorded. Sigmoidal curves were fitted and EC50/IC50 values were determined by GraphPad Prism software.

Growth hormone secretagogue receptor type 1, sequence (Q92847 whole entry): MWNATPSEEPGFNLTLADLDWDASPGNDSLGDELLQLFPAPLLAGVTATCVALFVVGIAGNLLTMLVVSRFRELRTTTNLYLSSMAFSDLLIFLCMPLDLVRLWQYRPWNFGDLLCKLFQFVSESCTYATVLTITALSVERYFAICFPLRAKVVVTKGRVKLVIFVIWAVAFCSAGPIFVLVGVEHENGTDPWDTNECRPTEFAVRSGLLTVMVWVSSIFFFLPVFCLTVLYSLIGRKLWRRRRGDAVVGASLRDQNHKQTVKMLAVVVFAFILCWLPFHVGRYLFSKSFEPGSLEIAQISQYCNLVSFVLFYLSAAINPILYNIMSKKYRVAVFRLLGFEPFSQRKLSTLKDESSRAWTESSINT

SMILES | pIC50 (pH 7.4, 22 °C) | pIC50 | pIC50 (pH 7.4, 22 °C, read-out: IC50)
CC(=O)c1ccc(CNc2ccc(-c3c(N)nc(N)nc3COCc3ccccc3)cc2)cc1 [1-(4-{[(4-{2,4-diamino-6-[(benzyloxy)methyl]pyrimidin-5-yl}phenyl)amino]methyl}phenyl)ethan-1-one] | 8.00 | – | –
N#Cc1ccc(COc2ccc(-c3c(N)nc(N)nc3COCc3ccccc3)cc2)cc1 [2,4-diaminopyrimidine derivative, 10b] | – | 5.44 | –
CC(C)(C)CNc1ccc(-c2c(N)nc(N)nc2COCc2ccccc2)cc1 [6-[(benzyloxy)methyl]-5-{4-[(2,2-dimethylpropyl)amino]phenyl}pyrimidine-2,4-diamine] | – | 6.15 | –
Nc1nc(N)c(-c2ccc(NCc3ccc(C(F)(F)F)cc3)cc2)c(COCc2ccccc2)n1 [6-[(benzyloxy)methyl]-5-[4-({[4-(trifluoromethyl)phenyl]methyl}amino)phenyl]pyrimidine-2,4-diamine] | 7.01 | – | –
Nc1nc(N)c(-c2ccc(NCc3ccccc3)cc2)c(COCc2ccccc2)n1 [5-[4-(benzylamino)phenyl]-6-[(benzyloxy)methyl]pyrimidine-2,4-diamine] | – | 6.01 | –
Nc1nc(N)c(-c2ccc(CNc3ccc([N+](=O)[O-])cc3)cc2)c(COCc2ccccc2)n1 [6-[(benzyloxy)methyl]-5-(4-{[(4-nitrophenyl)amino]methyl}phenyl)pyrimidine-2,4-diamine] | – | 7.80 | –
CS(=O)(=O)c1ccc(CNc2ccc(-c3c(N)nc(N)nc3COCc3ccccc3)cc2)cc1 | 8.14 | – | –
Nc1nc(N)c(-c2ccc(NCc3ccncc3)cc2)c(COCc2ccccc2)n1 [6-[(benzyloxy)methyl]-5-{4-[(pyridin-4-ylmethyl)amino]phenyl}pyrimidine-2,4-diamine] | – | 7.07 | –
CCc1nc(N)nc(N)c1-c1ccc(N(C)Cc2ccc(S(C)(=O)=O)cc2)cc1 [6-ethyl-5-(4-{[(4-methanesulfonylphenyl)methyl](methyl)amino}phenyl)pyrimidine-2,4-diamine] | – | 7.49 | –
COc1ccc(CNc2ccc(-c3c(N)nc(N)nc3COCc3ccccc3)cc2)cc1 [6-[(benzyloxy)methyl]-5-(4-{[(4-methoxyphenyl)methyl]amino}phenyl)pyrimidine-2,4-diamine] | – | 7.05 | –
Nc1nc(N)c(-c2ccc(NCc3ccc(Cl)cc3)cc2)c(COCc2ccccc2)n1 [6-[(benzyloxy)methyl]-5-(4-{[(4-chlorophenyl)methyl]amino}phenyl)pyrimidine-2,4-diamine] | 6.74 | – | –
Nc1nc(N)c(-c2ccc(NCc3ccnc(Cl)c3)cc2)c(COCc2ccccc2)n1 [6-[(benzyloxy)methyl]-5-(4-{[(2-chloropyridin-4-yl)methyl]amino}phenyl)pyrimidine-2,4-diamine] | 8.44 | – | –
Nc1nc(N)c(-c2ccc(NCc3cnc4ccccc4c3)cc2)c(COCc2ccccc2)n1 [6-[(benzyloxy)methyl]-5-{4-[(quinolin-3-ylmethyl)amino]phenyl}pyrimidine-2,4-diamine] | – | 6.11 | –
Nc1nc(N)c(-c2ccc(NCc3ccc(S(=O)(=O)C(F)(F)F)cc3)cc2)c(COCc2ccccc2)n1 [6-[(benzyloxy)methyl]-5-[4-({[4-(trifluoromethane)sulfonylphenyl]methyl}amino)phenyl]pyrimidine-2,4-diamine] | 7.07 | – | 9.00
CS(=O)(=O)c1ccc(COc2ccc(-c3c(N)nc(N)nc3COCc3ccccc3)cc2)cc1 [6-[(benzyloxy)methyl]-5-{4-[(4-methanesulfonylphenyl)methoxy]phenyl}pyrimidine-2,4-diamine] | – | 7.32 | –
Nc1nc(N)c(-c2ccc(NCc3ccc([N+](=O)[O-])cc3)cc2)c(COCc2ccccc2)n1 [6-[(benzyloxy)methyl]-5-(4-{[(4-nitrophenyl)methyl]amino}phenyl)pyrimidine-2,4-diamine] | 8.24 | – | –
N#Cc1ccc(CNc2ccc(-c3c(N)nc(N)nc3COCc3ccccc3)cc2)cc1 [4-{[(4-{2,4-diamino-6-[(benzyloxy)methyl]pyrimidin-5-yl}phenyl)amino]methyl}benzonitrile] | 7.72 | – | –

Results, then the compound that gave them:

pIC50 (pH 7.4, 22 °C) | pIC50 | pIC50 (pH 7.4, 22 °C, read-out: IC50) | SMILES
– | 6.72 | – | CCc1nc(N)nc(N)c1-c1ccc(CNc2ccc([N+](=O)[O-])cc2)cc1 [6-ethyl-5-(4-{[(4-nitrophenyl)amino]methyl}phenyl)pyrimidine-2,4-diamine]
6.96 | – | – | CCc1nc(N)nc(N)c1-c1ccc(NCc2ccc(C(C)=O)cc2)cc1 [1-[4-({[4-(2,4-diamino-6-ethylpyrimidin-5-yl)phenyl]amino}methyl)phenyl]ethan-1-one]
5.86 | – | – | CCc1nc(N)nc(N)c1-c1ccc(NCc2ccc(Cl)cc2)cc1 [5-(4-{[(4-chlorophenyl)methyl]amino}phenyl)-6-ethylpyrimidine-2,4-diamine]
– | 7.38 | – | CCc1nc(N)nc(N)c1-c1ccc(NCc2ccc(S(C)(=O)=O)cc2)c(Br)c1 [5-(3-bromo-4-{[(4-methanesulfonylphenyl)methyl]amino}phenyl)-6-ethylpyrimidine-2,4-diamine]
– | 6.49 | – | Nc1nc(N)c(-c2ccc(NCc3ccc(Cl)s3)cc2)c(COCc2ccccc2)n1 [6-[(benzyloxy)methyl]-5-(4-{[(5-chlorothiophen-2-yl)methyl]amino}phenyl)pyrimidine-2,4-diamine]
– | 6.77 | – | Nc1nc(N)c(-c2ccc(NCc3csc(Cl)c3)cc2)c(COCc2ccccc2)n1 [6-[(benzyloxy)methyl]-5-(4-{[(5-chlorothiophen-3-yl)methyl]amino}phenyl)pyrimidine-2,4-diamine]
7.92 | – | – | CCc1nc(N)nc(N)c1-c1ccc(NCc2ccc(S(C)(=O)=O)cc2)cc1 [6-ethyl-5-(4-{[(4-methanesulfonylphenyl)methyl]amino}phenyl)pyrimidine-2,4-diamine]
– | 7.96 | – | CCc1nc(N)nc(N)c1-c1ccc(NCc2ccc(S(C)(=O)=O)cc2)c(Cl)c1 [5-(3-chloro-4-{[(4-methanesulfonylphenyl)methyl]amino}phenyl)-6-ethylpyrimidine-2,4-diamine]
6.66 | – | – | CCc1nc(N)nc(N)c1-c1ccc(NCc2ccnc(Cl)c2)cc1 [5-(4-{[(2-chloropyridin-4-yl)methyl]amino}phenyl)-6-ethylpyrimidine-2,4-diamine]
6.16 | – | 7.68 | CCc1nc(N)nc(N)c1-c1ccc(NCc2ccc(S(=O)(=O)C(F)(F)F)cc2)cc1 [6-ethyl-5-[4-({[4-(trifluoromethane)sulfonylphenyl]methyl}amino)phenyl]pyrimidine-2,4-diamine]
6.10 | – | – | CCc1nc(N)nc(N)c1-c1ccc(NCc2csc(Cl)c2)cc1 [5-(4-{[(5-chlorothiophen-3-yl)methyl]amino}phenyl)-6-ethylpyrimidine-2,4-diamine]
6.11 | – | – | CCc1nc(N)nc(N)c1-c1ccc(NCc2ccc(C#N)cc2)cc1 [4-({[4-(2,4-diamino-6-ethylpyrimidin-5-yl)phenyl]amino}methyl)benzonitrile]
6.96 | – | – | CCc1nc(N)nc(N)c1-c1ccc(NCc2ccc(C(C)O)cc2)cc1 (stereo unspecified) [1-[4-({[4-(2,4-diamino-6-ethylpyrimidin-5-yl)phenyl]amino}methyl)phenyl]ethan-1-ol]
7.64 | – | – | CCc1nc(N)nc(N)c1-c1ccc(NCc2ccc([N+](=O)[O-])cc2)cc1 [6-ethyl-5-(4-{[(4-nitrophenyl)methyl]amino}phenyl)pyrimidine-2,4-diamine]
7.35 | – | – | CCc1nc(N)nc(N)c1-c1ccc(NCc2cc(F)c(S(C)(=O)=O)c(F)c2)cc1 [5-(4-{[(3,5-difluoro-4-methanesulfonylphenyl)methyl]amino}phenyl)-6-ethylpyrimidine-2,4-diamine]
– | 5.47 | – | Nc1nc(N)c(-c2ccc(NCc3ccc(Cl)cc3)cc2)c(CCc2ccccc2)n1 [5-(4-{[(4-chlorophenyl)methyl]amino}phenyl)-6-(2-phenylethyl)pyrimidine-2,4-diamine]
– | 6.92 | – | CCc1nc(N)nc(N)c1-c1ccc(CNc2ccc(S(C)(=O)=O)cc2)cc1 [6-ethyl-5-(4-{[(4-methanesulfonylphenyl)amino]methyl}phenyl)pyrimidine-2,4-diamine]
